# From patent publication US20190203253A1, “METHODS OF IDENTIFYING AND TREATING CANCER PATIENTS WITH AN EPHB6 DEFICIENCY” (University of Saskatchewan, priority 2016, published 2019)
# Key:
# Type in all cases: cell-based, human
# [1] = system: BT-20 cells (EPHB6-targeting shRNA vs non-silencing shRNA); assay: Drug sensitivity assay (resazurin), SRC inhibitors, BT-20 cells with silenced EPHB6; conditions: BT-20 with EPHB6-targeting shRNA vs non-silencing shRNA, 96 h (FIGS. 6A-6E)
# Experimental: FIG. 6. SL relation between EPHB6 and SRC in BT-20 TNBC cells. A. Triple negative breast cancer cells, BT-20, were transduced with EPHB6-targeting shRNA (BT20-66-shRNA), or non-silencing shRNA (BT2O-NS). EPHB6 expression was analyzed by Western blotting with anti-EPHB6. Western blotting with anti-tubulin was used as a loading control. B. BT20-66-shRNA and BT2O-NS cells were cultured in 96-well plates with indicated concentrations of SU6656 or matching volumes of DMSO for 96 h. Cells were stained with resazurin and fluorescence was measured using a SpectraMax M5 plate reader to determine cell suppression. Five wells were analyzed per condition. […] C. […] Cells were stained with resazurin and fluorescence was measured using a SpectraMax M5 plate reader to determine cell suppression. Five wells were analyzed per condition. […] PI-stained cells were counted in at least 10 randomly captured frames. […] Stained cells were analyzed by flow cytometry and the FlowJo software. […]
# MDA-MB-231 and BT-20 cell monolayers were incubated in 96-well plates for 72 h and 96 h, respectively, with indicated concentrations of KX2-391 or SU6656, or matching volumes of DMSO as a solvent control. Treated cells were stained using resazurin by following the manufacturer's instructions and fluorescence was measured using a SpectraMax M5 microplate reader.
# [2] = system: MDA-pc3 and MDA-B6 cells (MDA-MB-231); assay: Drug sensitivity assay (resazurin), SRC inhibitors, MDA-MB-231-derived cells; conditions: MDA-pc3 vs MDA-B6, increasing concentrations, 72 h, resazurin (FIG. 4A, 4B)
# Experimental: FIG. 4. […] C. […] All experiments were performed at least three times.
# [3] = system: co-cultured MDA-B6 and MDA-pc3 cells; assay: Drug sensitivity assay with fluorescent co-cultured cells (flow cytometry), KX2-391; conditions: GFP/RFP-labelled MDA-B6 and MDA-pc3 co-seeded in equal numbers, 25 nM, 72 h (FIGS. 4D, 4E)
# Experimental: FIG. 4. SL interaction between EPHB6 and SRC. A. MDA-pc3 and MDA-B6 cells were cultured in 96-well plates with the indicated concentrations of SU6656 or matching volumes of DMSO for 72 h. Cells were stained with resazurin and fluorescence was measured using a SpectraMax M5 plate reader to determine cell suppression. Five wells were analyzed per condition. […] B. MDA-pc3 and MDA-B6 cells were cultured in 96-well plates with the indicated concentrations of KX2-391 or matching volumes of DMSO for 72 h. Cells were stained with resazurin and fluorescence was measured using a SpectraMax M5 plate reader to determine cell suppression. Five wells were analyzed per condition. […] C. MDA-B6 and MDA-pc3 cells were transduced with lentivirus encoding pLD-GFP-Puro or pLD-RFP-Puro as indicated. Cells were selected with 2 μg/mL puromycin for 48 h, cultured in monolayer, and imaged by confocal microscopy at 100× magnification. […] Cells were collected and analyzed by flow cytometry and the FlowJo software. […] Cells were collected and analyzed by flow cytometry and the FlowJo software. […]
# For color assays, MDA-B6-GFP and MDA-pc3-RFP, or MDA-B6-RFP and MDA-pc3-GFP cells were co-seeded in equal numbers in 12-well plates at indicated cell densities. […] Treated cells were collected and quantitated by flow cytometry. Results were analyzed using the FlowJo software (FLOWJO LLC, Ashland, Oreg., USA).
structure (smiles),measurement,setting,value
O=C(Cc1ccc(-c2ccc(OCCN3CCOCC3)cc2)cn1)NCc1ccccc1 [KX2-391],cell suppression after silencing of EPHB6 expression,[1],strongly increased their suppression
same,"cell suppression relative to DMSO control, EPHB6-deficient vs EPHB6-expressing cells",[2],significantly stronger suppression of EPHB6-deficent cells
same,cell suppression in co-culture monitored by flow cytometry,[3],EPHB6-deficient cells are much less resistant to SRC inhibition
